The values that follow come from patent US12685733B2, “Indole molecules and use thereof in the inhibition of DNA polymerases” (BioVentures, LLC, priority 2019, dated 2026).

One test concerns T98G cells. In words: Clonogenic survival assay. Format: cell-based, human.
In test [1] the test system is hpol κ-proficient HAP-1 cells. As to the kind of experiment: supF mutagenesis assay. The following applies: 1 μM IAG-10, 24 h.
Experimental: HAP-1 hpol κ-proficient and hpol κ-deficient cells were cultured in 10 cm dishes to ~80% confluency in Iscove's modified Dulbecco's medium (Invitrogen) containing 10% (v/v) FBS supplemented with Ix antibiotic antimycotic solution (Sigma). They were transfected with unmodified (control) and methylmethanesulfonate (MMS)-modified pSP189 plasmid harboring the supF gene either in the absence or presence of 1 μM IAG-10. For plasmid modification with MMS, the pSP189 plasmid was first incubated with 100 mM MMS in 10 mM HEPES buffer (pH 7.5) containing 50 mM KCl, 5 mM MgCl2, and 1 mM dithiothreitol at RT for 1 h. The MMS-modified plasmid was then purified by ethanol precipitation and used in subsequent transfections, similar to the unmodified plasmid. […] The recovered plasmids (75-100 ng) were then transformed into E. coli MBM7070 strain by electroporation, and the transformed bacterial cells were plated on LB-agar plates containing 100 μg/mL ampicillin, 1 mM isopropyl-I-thio-fi-Dgalactopyranoside (IPTG) and 100 μg/mL X-gaL The resulting blue (nonmutated) and white (mutated) colonies were counted. The mutation frequency was calculated as the ratio of mutant (white) colonies to total (blue+white) colonies. At least 10 000 colonies were counted for each condition, and the results reported represent the mean (±SD) of experiments performed in biological triplicate.
The target in a further test is T1, Tb pol I (Mycobacterium tuberculosis, UniProt P9WNU5).
T1 construct: made in house
In words: Fluorescence-based polymerase assay, other pol families. Format: biochemical. The following applies: 10 μM; 10 nM Tb pol I (A-family).

The next test has as its target T2, Dpo1 (Saccharolobus solfataricus, UniProt P26811).
T2 construct: made in house
T2 sequence (P26811 1-882): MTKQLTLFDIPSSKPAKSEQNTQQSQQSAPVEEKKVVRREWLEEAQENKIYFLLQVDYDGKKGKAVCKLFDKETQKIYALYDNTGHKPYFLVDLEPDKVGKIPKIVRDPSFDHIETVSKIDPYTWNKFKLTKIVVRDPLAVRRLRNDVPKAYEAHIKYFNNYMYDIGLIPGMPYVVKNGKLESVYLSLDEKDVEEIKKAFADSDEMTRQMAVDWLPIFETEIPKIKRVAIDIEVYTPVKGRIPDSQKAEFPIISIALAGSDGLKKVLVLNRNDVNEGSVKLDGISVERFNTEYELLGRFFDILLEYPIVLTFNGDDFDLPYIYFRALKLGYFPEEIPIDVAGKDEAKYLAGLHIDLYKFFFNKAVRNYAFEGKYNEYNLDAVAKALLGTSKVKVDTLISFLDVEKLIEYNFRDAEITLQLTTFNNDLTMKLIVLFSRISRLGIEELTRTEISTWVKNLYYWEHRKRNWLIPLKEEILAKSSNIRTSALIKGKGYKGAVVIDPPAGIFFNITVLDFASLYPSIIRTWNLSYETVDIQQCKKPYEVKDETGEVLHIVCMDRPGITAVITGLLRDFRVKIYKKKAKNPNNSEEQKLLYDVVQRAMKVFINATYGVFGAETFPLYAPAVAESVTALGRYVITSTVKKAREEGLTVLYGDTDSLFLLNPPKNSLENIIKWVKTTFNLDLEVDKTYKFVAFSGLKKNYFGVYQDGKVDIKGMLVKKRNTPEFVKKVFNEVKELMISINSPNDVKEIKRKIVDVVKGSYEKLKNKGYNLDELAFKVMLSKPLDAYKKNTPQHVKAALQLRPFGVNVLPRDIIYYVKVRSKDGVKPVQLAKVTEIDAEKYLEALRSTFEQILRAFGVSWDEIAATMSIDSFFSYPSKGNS
The description is as above. Format: biochemical, Sulfolobus solfataricus. The following applies: 10 μM; 25 nM Dpo1 (B-family).

The next test deals with T3, hpol λ (Homo sapiens, UniProt Q9UGP5).
T3 construct: hpol λ, residues 1-325; gift of Dr. Miguel Garcia-Diaz (Stony Brook University)
T3 sequence (Q9UGP5 242-575 limits assumed): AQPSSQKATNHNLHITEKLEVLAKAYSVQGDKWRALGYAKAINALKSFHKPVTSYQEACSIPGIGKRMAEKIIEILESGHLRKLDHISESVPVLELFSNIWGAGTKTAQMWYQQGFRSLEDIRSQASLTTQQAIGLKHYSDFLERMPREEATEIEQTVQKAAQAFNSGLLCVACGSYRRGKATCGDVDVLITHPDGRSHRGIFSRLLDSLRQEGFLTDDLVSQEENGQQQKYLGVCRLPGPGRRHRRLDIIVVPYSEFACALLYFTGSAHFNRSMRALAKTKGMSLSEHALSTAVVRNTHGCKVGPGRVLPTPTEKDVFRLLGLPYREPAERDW
Described as above. Format: biochemical. The following applies: 10 μM; 10 nM hpol λ (X-family).

Test [2] relates to hpol κ-deficient HAP-1 cells. As to the kind of experiment: Alkaline comet assay. Format: cell-based, human. How it is done: (§1) To evaluate DNA damage upon treatment with TMZ and the compound IAG-10, the alkaline comet assay was performed using protocol as described by the manufacturer (Trevigen, Gaithersburg, MD). Briefly, 100 000 HAP-1 cells per well for both the hpol κ-proficient and hpol κ-deficient cell types were plated in a 12-well dish. Both types of cells were treated with 0.5 μM of IAG-10 alone or in combination with TMZ (100 μM) for 1 h. Cells treated with DMSO served as the control. Following treatment, cells were harvested, washed in ice-cold Ix PBS, and counted. The cells were then suspended in low-melting agarose to a final dilution of 200-300 cells per well on the comet slide. The comet slides with wells coated with cell/agarose mixture were incubated at 4° C. in the dark to allow the agarose to solidify before immersing the slides in proprietary lysis solution for 1 h. Each comet slide was then immersed in an alkaline unwinding solution (200 mM NaOH, 1 mM EDTA) for 20 min at RT before placing them in the electrophoresis unit in […] of the same solution. Samples were electrophoresed at 21 V for 30 min at 4° C. The comet slides were washed and dried completely at 37° C. before staining with SYBR Gold diluted in TE buffer (10 mM Tris-HCl, pH 7.5, 1 mM EDTA). The comets were visualized using an EVOS FL Auto microscope (Life Technologies, Carlsbad, CA) set at 10× magnification and were scored using CometScore software. All experiments were repeated in 3 biological replicates with at least 60 comets scored for each condition. Results were plotted using Graphpad Prism, as the percent of DNA in the tail of each comet, and statistical significance between treatment conditions was calculated using one-way ANOVA with the Bonferroni posthoc correction.

Test [3] relates to hpol κ-proficient HAP-1 cells. In words: Alkaline comet assay. Format: cell-based, human. How it is done:
as §1

Where [4] appears, read: 100 μM TMZ + 0.5 μM IAG-10, 1 h.
Where [5] appears, read: single agent, 1 h: 0.5 μM IAG-10 or 100 μM TMZ.

T1 sequence (P9WNU5 whole entry): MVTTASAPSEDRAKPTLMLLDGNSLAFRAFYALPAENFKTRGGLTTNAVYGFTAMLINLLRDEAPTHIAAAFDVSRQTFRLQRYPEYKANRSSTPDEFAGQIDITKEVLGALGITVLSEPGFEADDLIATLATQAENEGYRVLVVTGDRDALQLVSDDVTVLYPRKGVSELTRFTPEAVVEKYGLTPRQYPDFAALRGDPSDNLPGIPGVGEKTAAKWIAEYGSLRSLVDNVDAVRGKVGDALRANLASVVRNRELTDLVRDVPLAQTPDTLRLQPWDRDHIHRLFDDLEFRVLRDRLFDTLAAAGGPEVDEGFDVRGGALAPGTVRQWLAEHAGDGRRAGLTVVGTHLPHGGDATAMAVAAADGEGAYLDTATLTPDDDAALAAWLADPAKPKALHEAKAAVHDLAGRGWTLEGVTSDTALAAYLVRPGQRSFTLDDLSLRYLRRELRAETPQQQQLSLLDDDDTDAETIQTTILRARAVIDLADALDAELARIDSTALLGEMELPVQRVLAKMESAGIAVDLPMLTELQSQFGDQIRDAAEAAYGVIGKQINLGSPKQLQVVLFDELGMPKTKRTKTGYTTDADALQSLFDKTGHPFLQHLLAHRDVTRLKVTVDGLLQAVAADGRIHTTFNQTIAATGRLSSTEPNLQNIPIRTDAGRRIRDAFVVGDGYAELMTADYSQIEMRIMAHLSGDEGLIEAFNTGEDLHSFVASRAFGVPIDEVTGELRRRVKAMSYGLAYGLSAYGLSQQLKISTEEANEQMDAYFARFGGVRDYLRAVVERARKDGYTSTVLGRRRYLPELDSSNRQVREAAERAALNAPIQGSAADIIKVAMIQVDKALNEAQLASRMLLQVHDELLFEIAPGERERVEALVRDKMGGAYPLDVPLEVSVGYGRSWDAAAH

Regarding `Cl.[H]/N=C(\N)NN=Cc1cn(C(=O)c2cccc3ccccc23)c2ccc(Cl)cc12` [IAG-10, (E)-2-((1-(1-naphthoyl)-5-chloro-1H-indol-3-y1)methylene)hydrazine-1-carboximidamide hydrochloride], the “combination index (TMZ and IAG-10, Chou-Talalay)” value with T98G cells (IAG-10 50 nM + TMZ) is listed as 0.09. The “decrease of cell proliferation (clonogenic) compared to TMZ alone” value in the test with T98G cells (IAG-10 50 nM along with TMZ, 3 hrs) is ~ 10 fold. The “decrease in GBM-derived cell proliferation compared to NT2 cells” value in the test with T98G cells (IAG-10 alone, concentrations above that used for combination) was ~ 2 fold. Moreover, the “mutation frequency for the undamaged plasmid” value in test [1] is “did not change the mutation frequency”. Further, the “mutation frequency for MMS-damaged DNA over the undamaged control plasmid” value in test [1] (MMS-damaged pSP189) is given as “approximately twofold”. In addition, the “polymerase activity relative to DMSO control” value on Tb pol I, at Dpo1 and at hpol λ was “only hpol κ activity was inhibited” in each case. In addition, the “DNA damage (percent DNA in the tail), combination” value in test [2] (setting [4]) was “did not increase further”; in test [3] (setting [4]), “increased even further”. The “DNA damage (percent DNA in the tail) compared to control” value in test [2] (setting [5]) is recorded as “did not increase DNA damage over control”; in test [3] (setting [5]), “approximately twofold”.
